Patent US10457709B2, “Antimicrobial peptides, their variants and uses” (priority 2015, dated 2019)
Where two headings read alike, the source gives them in different places. Square brackets hold non-standard residues; d marks the D form. Peptide text beside a SMILES is read from it.

How the values were obtained:
[1] = tested on: C. parapsilosis clinical strains; experiment: MIC, clinical yeast strains; assay type: cell-based, Candida parapsilosis; design: unit: µg/ml
Outline: (§1)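 MIC = lowest concentration without visual growth after 20–24 h at 37° C. Microbroth dilution, 5.0×10^5 cfu/ml, 0.125–128 μg/ml range; MH broth for bacteria, potato dextrose broth for yeasts.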

[2] = tested on: Klebsiella pneumoniae clinical strains; assay type: cell-based; conditions: microdilution, Muller Hinton broth-cation adjusted, 0.02% BSA, 0.2% acetic acid
Outline: as §1

[3] = tested on: Pseudomonas aeruginosa clinical strains; assay type: cell-based; conditions: microdilution, Muller Hinton broth-cation adjusted, 0.02% BSA, 0.2% acetic acid
Outline: as §1

[4] = tested on: Escherichia coli clinical strains; assay type: cell-based; conditions: microdilution, Muller Hinton broth-cation adjusted, 0.02% BSA, 0.2% acetic acid
Outline: as §1

[5] = tested on: Candida albicans clinical strains; experiment: MIC, clinical yeast strains; assay type: cell-based; design: unit: μg/ml
Outline: as §1

[6] = tested on: Staphylococcus aureus clinical strains; assay type: cell-based; design: Minimum inhibitory concentration: unit: μg/ml; conditions: microdilution, Muller Hinton broth-cation adjusted, 0.02% BSA, 0.2% acetic acid
Outline: as §1

[7] = tested on: Proteus mirabilis clinical strains; assay type: cell-based; design: Minimum inhibitory concentration: unit: μg/ml; conditions: microdilution, Muller Hinton broth-cation adjusted, 0.02% BSA, 0.2% acetic acid
Outline: as §1

[8] = tested on: Enterobacter cloacae clinical strains; assay type: cell-based; design: Minimum inhibitory concentration: unit: μg/ml; conditions: microdilution, Muller Hinton broth-cation adjusted, 0.02% BSA, 0.2% acetic acid
Outline: as §1

[9] = tested on: Streptococcus pneumoniae clinical strains; assay type: cell-based; design: Minimum inhibitory concentration: unit: μg/ml; conditions: microdilution, Muller Hinton broth-cation adjusted, 0.02% BSA, 0.2% acetic acid
Outline: as §1

[10] = tested on: Serratia marcescens clinical strains; assay type: cell-based; design: Minimum inhibitory concentration: unit: μg/ml; conditions: microdilution, Muller Hinton broth-cation adjusted, 0.02% BSA, 0.2% acetic acid
Outline: as §1

[11] = tested on: Acinetobacter baumannii clinical strains; assay type: cell-based; design: Minimum inhibitory concentration: unit: μg/ml; conditions: microdilution, Muller Hinton broth-cation adjusted, 0.02% BSA, 0.2% acetic acid
Outline: as §1

[12] = tested on: C. glabrata clinical strains; experiment: MIC, clinical yeast strains; assay type: cell-based, Candida glabrata; design: unit: µg/ml
Outline: as §1

[13] = tested on: C. quillermondiae clinical strains; experiment: MIC, clinical yeast strains; assay type: cell-based, Candida quillermondiae; design: unit: μg/ml; conditions: C. quillermondiae clinical yeast strain 1
Outline: as §1

With `CC[C@@H](C)[C@@H](NC(=O)[C@@H](CC(C)C)NC(=O)[C@@H](CCCNC(=N)N)NC(=O)[C@H](N)CCCNC(=N)N)C(=O)N[C@H](Cc1c[nH]c2ccccc12)C(=O)N[C@H](CCCNC(=N)N)C(=O)N[C@H](CCCNC(=N)N)C(=O)N[C@H](Cc1ccccc1)C(=O)N[C@H](CCCCN)C(=O)N[C@H](Cc1c[nH]c2ccccc12)C(=O)N[C@H](CC(C)C)C(=O)N[C@H](CCCNC(=N)N)C(=O)O` [Chain204D] (H-[dR][dR][dL][dI][dW][dR][dR][dF][dK][dW][dL][dR]-OH) the Minimum inhibitory concentration ([1]; C. parapsilosis clinical yeast strain 1) was 4, the Minimum inhibitory concentration ([1]; C. parapsilosis clinical yeast strain 2) was 4 and the Minimum inhibitory concentration ([1]; C. parapsilosis clinical yeast strain 3) was 8. It also gave a Minimum inhibitory concentration ([1]; C. parapsilosis clinical yeast strain 4) of 8, a Minimum inhibitory concentration ([2]; Klebsiella pneumoniae clinical strain 1) of 8 and a Minimum inhibitory concentration ([2]; Klebsiella pneumoniae clinical strain 2) of 4. For the same molecule, the Minimum inhibitory concentration ([2]; Klebsiella pneumoniae clinical strain 3) was 16, the Minimum inhibitory concentration ([2]; Klebsiella pneumoniae clinical strain 4) was 4 and the Minimum inhibitory concentration ([2]; Klebsiella pneumoniae clinical strain 5) was 2. For the same molecule, the Minimum inhibitory concentration ([3]; Pseudomonas aeruginosa clinical strain 1) was 4, the Minimum inhibitory concentration ([3]; Pseudomonas aeruginosa clinical strain 2) was 16 and the Minimum inhibitory concentration ([3]; Pseudomonas aeruginosa clinical strain 3) was 8. For the same molecule, the Minimum inhibitory concentration ([3]; Pseudomonas aeruginosa clinical strain 4) was 8, the Minimum inhibitory concentration ([3]; Pseudomonas aeruginosa clinical strain 5) was 4 and the Minimum inhibitory concentration ([4]; Escherichia coli clinical strain 1) was 8. It also gave a Minimum inhibitory concentration ([4]; Escherichia coli clinical strain 2) of 1, a Minimum inhibitory concentration ([4]; Escherichia coli clinical strain 3) of 1 and a Minimum inhibitory concentration ([4]; Escherichia coli clinical strain 4) of 1. The Minimum inhibitory concentration ([4]; Escherichia coli clinical strain 5) was 1, the Minimum inhibitory concentration ([5]; Candida albicans clinical yeast strain 1) was 8 and the Minimum inhibitory concentration ([5]; Candida albicans clinical yeast strain 2) was 8. The Minimum inhibitory concentration ([5]; Candida albicans clinical yeast strain 3) was 8, the Minimum inhibitory concentration ([5]; Candida albicans clinical yeast strain 4) was 8 and the Minimum inhibitory concentration ([5]; Candida albicans clinical yeast strain 5) was 8. It also gave a Minimum inhibitory concentration ([6]; Staphylococcus aureus clinical strain 1) of 1, a Minimum inhibitory concentration ([6]; Staphylococcus aureus clinical strain 2) of 2 and a Minimum inhibitory concentration ([6]; Staphylococcus aureus clinical strain 3) of 2. The Minimum inhibitory concentration ([6]; Staphylococcus aureus clinical strain 4) was 1, the Minimum inhibitory concentration ([6]; Staphylococcus aureus clinical strain 5) was 1 and the Minimum inhibitory concentration ([7]; Proteus mirabilis clinical strain 1) was >128. The Minimum inhibitory concentration ([7]; Proteus mirabilis clinical strain 2) was 32, the Minimum inhibitory concentration ([7]; Proteus mirabilis clinical strain 3) was 64 and the Minimum inhibitory concentration ([7]; Proteus mirabilis clinical strain 4) was >128. For the same molecule, the Minimum inhibitory concentration ([7]; Proteus mirabilis clinical strain 5) was >128, the Minimum inhibitory concentration ([8]; Enterobacter cloacae clinical strain 1) was 4 and the Minimum inhibitory concentration ([8]; Enterobacter cloacae clinical strain 2) was 8. For the same molecule, the Minimum inhibitory concentration ([8]; Enterobacter cloacae clinical strain 3) was 4, the Minimum inhibitory concentration ([8]; Enterobacter cloacae clinical strain 4) was 8 and the Minimum inhibitory concentration ([8]; Enterobacter cloacae clinical strain 5) was 2. The Minimum inhibitory concentration ([9]; Streptococcus pneumoniae clinical strain 1) was 4, the Minimum inhibitory concentration ([9]; Streptococcus pneumoniae clinical strain 2) was 4 and the Minimum inhibitory concentration ([9]; Streptococcus pneumoniae clinical strain 3) was 4. The Minimum inhibitory concentration ([9]; Streptococcus pneumoniae clinical strain 4) was 4, the Minimum inhibitory concentration ([9]; Streptococcus pneumoniae clinical strain 5) was 4 and the Minimum inhibitory concentration ([10]; Serratia marcescens clinical strain 1) was >128. For the same molecule, the Minimum inhibitory concentration ([10]; Serratia marcescens clinical strain 2) was >128, the Minimum inhibitory concentration ([10]; Serratia marcescens clinical strain 3) was 128 and the Minimum inhibitory concentration ([10]; Serratia marcescens clinical strain 4) was >128. For the same molecule, the Minimum inhibitory concentration ([10]; Serratia marcescens clinical strain 5) was >128, the Minimum inhibitory concentration ([11]; Acinetobacter baumannii clinical strain 1) was 4 and the Minimum inhibitory concentration ([11]; Acinetobacter baumannii clinical strain 2) was 4. The Minimum inhibitory concentration ([11]; Acinetobacter baumannii clinical strain 3) was 4, the Minimum inhibitory concentration ([11]; Acinetobacter baumannii clinical strain 4) was 4 and the Minimum inhibitory concentration ([11]; Acinetobacter baumannii clinical strain 5) was 4. For the same molecule, the Minimum inhibitory concentration ([12]; C. glabrata clinical yeast strain 1) was 4, the Minimum inhibitory concentration ([12]; C. glabrata clinical yeast strain 2) was 8 and the Minimum inhibitory concentration ([12]; C. glabrata clinical yeast strain 3) was 32. The Minimum inhibitory concentration ([12]; C. glabrata clinical yeast strain 4) was 32 and the Minimum inhibitory concentration [13] was 4.
